Experimental data: patent US20220304992A1, “METHODS OF REJUVENATING AGED TISSUE BY INHIBITING 15-HYDROXYPROSTAGLANDIN DEHYDROGENASE (15-PGDH)” (The Board of Trustees of the Leland Stanford Junior …, priority 2019, published 2022)

System: atrogene and other transcript levels in aged muscles
Assay: Quantitative RT-PCR of treated aged muscle tissue
Format: in vivo, mouse
Text: We isolated RNA from MuSCs using the RNeasy Micro Kit (Qiagen). For muscle samples, we snap froze the tissue in liquid nitrogen, homogenized muscles in Trizol (Invitrogen) using the FastPrep FP120 homogenizer (MP Biomedicals), and then isolated RNA. We reverse-transcribed cDNA from total mRNA from each sample using the SensiFAST™ cDNA Synthesis Kit (Bioline). We subjected cDNA to RT-PCR using SYBR Green PCR Master Mix (Applied Biosystems) or TaqMan Assays (Applied Biosystems) in an ABI 7900HT Real-Time PCR System (Applied Biosystems). We cycled samples at 95° C. for 10 min and then 40 cycles at 95° C. for 15 s and 60° C. for 1 min. To quantify relative transcript levels, we used 2-ΔΔCt to compare treated and untreated samples and expressed the results relative to Gapdh.
For SYBR Green qRT-PCR, we used the following primer sequences: Gapdh, 30 forward 5′-[…]-3′, reverse 5′-[…]-3′; Hpgd, forward 5′-[…] -3′, reverse 5′-[…]-3′; Ptger1, forward 5′ […]-3′, reverse 5′-[…]-3′, Ptger2, forward 5′-[…]-3′, reverse 5′-[…]-3′, Cox2, forward, 5′-[…]-3′, reverse 5′-[…]-3′; Fbxo32, forward 5′-[…]-3′, reverse 5′-[…]-3′. For murine senescence markers and senescence associated markers we used the previously described primers (6).
TaqMan Assays (Applied Biosystems) were used to quantify Pax7, Myh, p21, Ptger3 and Ptger4 in samples according to the manufacturer instructions with the TaqMan Universal PCR Master Mix reagent kit (Applied Biosystems). Transcript levels were expressed relative to Gapdh levels. For SYBR Green qPCR, Gapdh qPCR was used to normalize input cDNA samples. For Taqman qPCR, multiplex qPCR enabled target signals (FAM) to be normalized individually by their internal Gapdh signals (VIC).
We isolated RNA from MuSCs, myoblasts and myotubes using the RNeasy Kit (Qiagen). Muscle samples were snap frozen in liquid nitrogen, then homogenized in Trizol (Invitrogen) using the FastPrep FP120 homogenizer (MP Biomedicals) before isolating RNA. We reverse-transcribed cDNA from total mRNA from each sample using the SensiFAST™ cDNA Synthesis Kit (Bioline). We subjected cDNA to RT-PCR using SYBR Green PCR Master Mix (Applied Biosystems) or TaqMan Assays (Applied Biosystems) in an ABI 7900HT Real-Time PCR System (Applied Biosystems). […] To quantify relative transcript levels, we used 2-ΔΔCt to compare treated and untreated samples and expressed the results relative to Gapdh. […]
For murine senescence markers and senescence associated markers we used the previously described primers (2). TaqMan Assays (Applied Biosystems) were used to quantify p21, Mstn, Ptger3 and Ptger4 in samples according to the manufacturer instructions with the TaqMan Universal PCR Master Mix reagent kit (Applied Biosystems). […] Mitochondrial copy number was quantified by using method and primers described previously (14).

CCCC[S+]([O-])c1sc2nc(-c3cccs3)cc(-c3ccccc3)c2c1N (stereo not shown) [SW033291, 2-(butylsulfinyl)-4-phenyl-6-(thiophen-2-yl)thieno[2,3-b]pyridin-3-amine]
other aging, inflammatory and autophagy markers (aged mice, SW treatment): no significant changes
Pgc1α mRNA level (aged muscles, SW treatment): restored to that seen in young muscles
expression of Fbxo32 (Atrogin1) at the mRNA level (aged muscles, SW treatment): decreased expression
expression of atrogenes (Atrogin-1, MuRF1, Musa1, Smart) and Traf6 by RT-qPCR (aged muscles, SW vs vehicle): diminished
